The record followed here is patent US6552027B2, “Quinazolines for treating brain tumor” (Parker Hughes Institute, priority 1998, dated 2003).

Values joined by “and” are separate entries in the source; they are usually repeats but may differ in a detail not shown here. Identical values can stand only once. Like-named read-outs stand apart in the source and are kept apart here. Some results are limits rather than exact numbers.

One series has as its system U373 cells. Kind of series: EGF-stimulated cell adhesion to poly-L-lysine coated plates. Type of series: cell-based, human. The following applies: stimulation with 250 ng/ml EGF, baseline 33.2±5.2%, P<0.02. The protocol:
To study the effects of quinazoline derivatives on EGF-stimulated cell adhesion, the trypsinized and recovered cells were incubated with varying concentrations ranging from 1 μM to 50 μM of quinazolines for 4 hours at 37° C., then stimulated with 250 ng/ml of EGF and examined for their ability to adhere to poly-L-lysine coated plates.
For the EGF stimulation experiments, the cells were plated in the presence of 250 ng/ml of EGF and allowed to adhere for 1 hour. The non-adherent cells were removed by gently washing the cells with PBS and then the adherent fraction was quantitated as described above for Example 6.

Series [1] relates to U373 human glioblastoma cells. Kind of series: SCID mouse xenograft model of human glioblastoma. The following applies: for in vivo anti-tumor activity / tumor-free survival (in words): daily i.p. doses for 10 days starting the day after inoculation. On the procedure: The right hind legs of the CB. 17 SCID mice were inoculated subcutaneously (s.c.) with 0.5×10^6 U373 human glioblastoma cells in 0.2 mL PBS. […] Daily treatments with PBS, unconjugated EGF (1 mg/kg/dose), and unconjugated WHI-P154 (1 mg/kg/dose) were used as controls. Mice were monitored daily for health status and tumor growth, and were sacrificed if they became moribund developed tumors which impeded their ability to attain food or water, at the end of the 3-month observation period. Tumors were measured using Vernier calipers twice weekly, and the tumor volumes were calculated according to the following formula (Friedman, S. H., mDolan, M. E., Pegg, A. E., Marcelli, S., Keir, S., Catino, J. J., Binger, D. D., Schold, S. C., Jr., 1995, Cancer Res., 55:2853-2857): [formula]
For histopathologic studies, tissues were fixed in 10% neutral buffered formalin, dehydrated, and embedded in paraffin by routine methods. Glass slides with affixed 6 micron tissue sections were prepared and stained with hematoxylin/eosin. Primary endpoints of interest were tumor growth and tumor-free survival outcome. Estimation of life table outcome and comparisons of outcome between groups were done, as previously reported (Waurzyniak, et al., 1997, Clinical Cancer Research 3:881-890; Anderson, et al., 1995, Cancer Res. 55:1321-1327; Uckun, et al., 1997, J. Clin. Oncol. 15:2214-2221).
On the technique in general: Xenograft models place foreign cells or tissue in a host animal.

The next series relates to U373 glioma cells. Kind of series: Morphology by anti-α-tubulin / TOTO-3 immunofluorescence. The following applies: 25 μg/ml, 24 hours. Type of series: cell-based, human. On the procedure:
Cells were fixed in paraformaldehyde, immunostained with monoclonal antibody to EGF-R (green fluorescence) and counterstained with TOTO-3 (blue fluorescence) The immunostained cells were analyzed with a laser scanning confocal microscope. Blue fluorescence represents nuclei.
Immunofluorescence was used to (i) examine the surface expression of EGF-receptor (EGF-R) on brain tumor cells, (ii) evaluate the uptake of EGF-P154 by brain tumor cells and (iii) examine the morphologic features of EGF-P154 treated brain tumor cells.
At the end of the incubation, cells were washed twice with PBS and fixed in 2% paraformaldehyde. The cells were permeabilized and non-specific binding sites were blocked with 2.5% BSA in PBS containing 0.1% Triton X-100 for 30 minutes. […] After rinsing with PBS, cells were incubated for 1 hour with a mixture of a goat anti-mouse IgG antibody conjugated to FITC (Amersham Corp., Arlington Heights, Ill.) and donkey anti-rabbit IgG conjugated to Texas Red (Amersham Corp.) at a dilution of 1:40 in PBS. Similarly, tubulin expression was examined by immunofluorescence using a monoclonal antibody against α-tubulin (Sigma Chemical Co, St. Louis, Mo.) at a dilution of 1:1000 and an anti-mouse IgG conjugated to FITC. Cells were washed in PBS and counterstained with toto-3 (Molecular Probes Inc., Eugene, Oreg.) for 10 minutes at a dilution of 1:1000. […]

Series [2] concerns U373 human glioblastoma cell line. The series is described as follows: MTT cytotoxicity assay, U373 glioblastoma cells. The following applies: U373. The protocol: (§1) The cytotoxicity assay of various compounds against human brain tumor cell lines was performed using the MTT (3-[4,5-dimethylthiazol-2-yl]-2,5-diphenyl tetrazolium bromide) assay (Boehringer Mannheim Corp., Indianapolis, Ind.). Briefly, exponentially growing brain tumor cells were seeded into a 96-well plate at a density of 2.5×10^4 cells/well and incubated for 36 hours at 37° C. prior to drug exposure. […] Triplicate wells were used for each treatment.
Human glioblastoma cell line U373 was obtained from American. Type Culture Collection (Rockville, Md.) and maintained as a continuous cell line in Dulbecco's modified Eagles's medium supplemented with 10% fetal bovine serum and antibiotics. The B-lineage acute lymphoblastic leukemia cell line Nalm-6 was used as a negative control.
(§2) The cells were incubated with the various compounds for 24-36 hours at 37° C. in a humidified 5% CO2 atmosphere. To each well, 10 μl of MTT (0.5 mg/ml final concentration) was added and the plates were incubated at 37° C. for 4 hours to allow MTT to form formazan crystals by reacting with metabolically active cells. The formazan crystals were solubilized overnight at 37° C. in a solution containing 10% SDS in 0.01 M HCl. The absorbence of each well was measured in a microplate reader (Labsystems) at 540 nm and a reference wavelength of 690 nm. To translate the OD540 values into the number of live cells in each well, the OD540 values were compared to those on standard OD540—versus—cell number curves generated for each cell line. The percent survival was calculated using the formula: [formula]
(§3) The IC50 values were calculated by non linear regression analysis.
A general note: Tetrazolium dyes change colour on reduction, which living cells bring about.

In a further series the test system is NALM-6 leukemia cells. The series is described as follows: MTT cytotoxicity assay, EGF-R negative leukemia cells (negative control line). The series is classed as cell-based. The protocol: Triplicate wells were used for each treatment.
Human glioblastoma cell line U373 was obtained from American.
The percent survival was calculated using the formula: [formula]

For series [3], the system named is U87 human glioblastoma cell line. Kind of series: MTT cytotoxicity assay, U87 glioblastoma cells. Type of series: cell-based. The protocol: as §1, §2, §3
Apoptosis was also evaluated using the nick-end-labeling assay, as described for Example 3.

In the next series the test system is glioblastoma cells. The series is described as follows: In situ apoptosis assay (TdT-mediated dUTP nick-end labeling). The following applies: 36 hours after treatment; FIGS. 6D and 6E. Type of series: cell-based, human. The protocol:
After a 36 hour incubation at 37° C. in a humidified 5% CO2 incubator, the supernatants were carefully aspirated and the cells were treated for 1-2 minutes with 0.1% trypsin. The detached cells were collected into a 15 ml centrifuge tube, washed with medium and pelleted by centrifugation at 1000 rpm for 5 minutes. Cells were resuspended in 50 μl of PBS, transferred to poly-L-lysine coated coverslips and allowed to attach for 15 minutes. The cells were washed once with PBS and incubated with equilibration buffer for 10 minutes at room temperature.
After removal of the equilibration buffer, cells were incubated for 1 hour at 37° C. with the reaction mixture containing terminal deoxynucleotidyl transferase (TdT) and […] for labeling of exposed 3′-hydroxyl ends of fragmented nuclear DNA. The cells were washed with PBS and incubated with anti-digoxigenin antibody conjugated to FITC for 1 hour at room temperature to detect the incorporated dUTP. After washing the cells with PBS, the coverslips were mounted onto slides with Vectashield containing propidium iodide (Vector Labs, Burlingame, Calif.) and viewed with a confocal laser scanning microscope. […] In control reactions, the TdT enzyme was omitted from the reaction mixture.

The next series concerns U373 glioblastoma cells. Kind of series: Uptake and internalization by immunofluorescence and confocal microscopy. Type of series: cell-based, human. The following applies: 5 μg/ml.
Where [4] appears, read: read-out: IC50 value derived from the composite cell survival curve.
Setting [5] is: 500 μg/kg/day×10 days i.p., 5 mice.

Take “EGF: Recombinant human EGF produced in E. coli; used unconjugated as control and as adhesion stimulus”: the “fraction capable of adhering to poly-L-lysine coated plates” value in the series on U373 cells stood at 58.48±4.7%. Moreover, in series [1] (1 mg/kg/day×10 days i.p.), the “time at which tumors reached a size of 50 mm^3” value is 34.0 ± 3.0 days. Further, the median tumor-free survival in series [1] (1 mg/kg/day×10 days i.p., N=5) was 23 days. Moreover, the “in vivo anti-tumor activity / tumor-free survival (in words)” value in series [1] is recorded as “inability”.
“EGF-P154: WHI-P154 attached to recombinant human EGF by photochemical conjugation with the crosslinking agent Sulfo-SANPAH”: the “morphologic changes (in words)” value in the series with U373 glioma cells was “complete disruption of microtubules, marked shrinkage, nuclear fragmentation and inability to adhere to the substratum”. Further, the 50% inhibitory concentration (IC50) – broadly, the concentration that gives 50% inhibition – in series [2] (setting [4]) is 881 nM; in series [2] (read-out: mean IC50 value, 3 independent experiments, FIG. 5A), 813 nM and 811 nM; in series [2] (read-out: range of IC50 values, 3 independent experiments), 588 to 950 nM; in series [3] (3 independent experiments, FIG. 5A, read-out: mean IC50 value) it was 620 ± 97 nM; in series [3] (3 independent experiments, read-out: range of IC50 values) it was 487 to 761 nM; in series [3] (setting [4]) it was 601 nM. Moreover, the “cytotoxicity against EGF-R negative leukemia cells (in words)” value with NALM-6 leukemia cells is “selective cytotoxicity to EGF-R positive glioblastoma cell lines only”. The “average size (mean±SE) of tumors at 40 days” value in series [1] (500 μg/kg/day dose level, P=0.0003) is 37.6±10.7 mm^3. Moreover, in series [1] (500 μg/kg/day dose level, P=0.002), the “average size (mean±SE) of tumors at 20 days” value worked out at 1.0±1.1 mm^3. Moreover, the “delay in reaching the 50 mm^3 tumor size versus control mice (PBS, EGF, or WHI-P154)” value in series [1] (500 μg/kg/day×10 days) was “approximately 11 days”. Besides, in series [1] (500 μg/kg/day×10 days i.p.), the “time at which tumors reached a size of 50 mm^3” value was 47.4 ± 7.1 days. Further, the median tumor-free survival in series [1] (setting [5]) is reported as 33 days. Moreover, the “time within which all mice developed tumors” value in series [1] (setting [5]) is at most 40 days. Moreover, in series [1] (1 mg/kg/day, 10 consecutive days), the “mice alive and free of detectable tumors for >58 days” value is reported as 40%. The “enhancement of in vivo anti-tumor activity of WHI-P154 by conjugation to EGF” value in series [1] (1 mg/kg/day×10 days, 53.2 nmol vs 2.9 nmol of WHI-P154) is on record as above 8 fold. Further, in series [1] (1 mg/kg/day×10 days, 58-day observation period), the “tumor size in the remaining 60% of the mice” value is recorded as at most 50 mm^3. The “toxicity of the applied dose levels (in words)” value in series [1] (0.5 and 1 mg/kg/day×10 days i.p.) is “nontoxic”. The “in vivo anti-tumor activity / tumor-free survival (in words)” value in series [1] is “significantly improved tumor-free survival in a dose-dependent fashion”; in series [1] (listed as EGF-P54), “significant in vivo anti-tumor activity”. Also, the “apoptotic nuclei by digoxigenin-dUTP incorporation (in words)” value with glioblastoma cells is given as “many apoptotic yellow nuclei”. Further, the “time at which internalized complexes were detected in the perinuclear region” value in the series on U373 glioblastoma cells was at most 30 min.
